Data taken from patent US20090269416A1, “Compositions and Methods For Preventing or Treating Chronic Renal Failure in Felines With Hyperthyroidism” (HILL'S PET NUTRITION , INC., priority 2006, published 2009).

Tested on: cats diagnosed with hyperthyroidism
Test: Six-week feeding/treatment study in hyperthyroid cats (Example 1): thyroid hormone profiles and serum chemistries
Format: in vivo
Settings: six weeks
Procedure: Food B1 and food B2 were mixed in a 1:1 ratio, thus resulting in food B. A group of five cats diagnosed with hyperthyroidism was fed food B for six weeks. Another live cats diagnosed with hyperthyroidism were given 2.5 mg methimazole orally once a day for six weeks while they were fed food B. Eight eats diagnosed with hyperthyroidism were given 2.5 mg methimazole orally once a day for six weeks while they were fed a commercially available cat food. The thyroid hormone profiles and serum chemistries of all cats were measured at zero, two, four, and six weeks.

[1] = hyperthyroid cats, methimazole 2.5 mg orally once a day, food B fed

Cn1cc[nH]c1=S [Methimazole, methimazole]
Change in Serum Creatinine Levels [1]: +0.46 mg/dL | Change in Serum Total T4 Levels [1]: -20.3 nmol/L | serum creatinine concentration relative to the normal creatinine concentration range (normal range 0.8-1.8 mg/dL): a bit higher than die 0.8-1.8 mg/dL normal creatinine concentration range | serum total T4 concentration relative to the normal total T4 concentration range (normal range printed as 10-55 nmol/dL): did not reach the normal total T4 concentration range
